Results on two compounds are retold here after patent US20050113292A1 (priority 2003, published 2005).

A value given as a limit tells only on which side of the number the result lay.

For one assay, the system named is T-tropic (R8) HIV-1. The conditions noted are these: T-tropic (R8).
The subject of assay [1] is HIV-1 mediated cell-cell fusion (R8 virus). The note with it: mediated cell-cell fusion (R8 virus).
In a further assay the test system is M-tropic (BAL) HIV-1. The conditions noted are these: M-tropic (BAL).

On to `CC(C)C[C@H](NC(=O)[C@H](CO)NC(=O)[C@H](C)NC(=O)[C@H](Cc1c[nH]c2ccccc12)NC(=O)[C@H](CCCCN)NC(=O)[C@H](CC(=O)O)NC(=O)[C@H](CC(C)C)NC(=O)[C@H](CCC(=O)O)NC(=O)[C@H](CC(C)C)NC(=O)[C@@H]1CSC(C(=O)NCCCC[C@H](NC(=O)CCNC(=O)C2N[C@H](C(=O)N[C@@H](CC(C)C)C(=O)N[C@@H](CCC(=O)O)C(=O)N[C@@H](CC(C)C)C(=O)N[C@@H](CC(=O)O)C(=O)N[C@@H](CCCCN)C(=O)N[C@@H](Cc3c[nH]c4ccccc34)C(=O)N[C@@H](C)C(=O)N[C@@H](CO)C(=O)N[C@@H](CC(C)C)C(=O)N[C@@H](Cc3c[nH]c4ccccc34)C(=O)N[C@@H](CC(N)=O)C(=O)N[C@@H](Cc3c[nH]c4ccccc34)C(=O)N[C@@H](Cc3ccccc3)C(=O)O)CS2)C(=O)N[C@@H](CCCCNC(=O)CNC(=O)C2N[C@H](C(=O)N[C@@H](CC(C)C)C(=O)N[C@@H](CCC(=O)O)C(=O)N[C@@H](CC(C)C)C(=O)N[C@@H](CC(=O)O)C(=O)N[C@@H](CCCCN)C(=O)N[C@@H](Cc3c[nH]c4ccccc34)C(=O)N[C@@H](C)C(=O)N[C@@H](CO)C(=O)N[C@@H](CC(C)C)C(=O)N[C@@H](Cc3c[nH]c4ccccc34)C(=O)N[C@@H](CC(N)=O)C(=O)N[C@@H](Cc3c[nH]c4ccccc34)C(=O)N[C@@H](Cc3ccccc3)C(=O)O)CS2)C(=O)N[C@@H](CO)C(=O)N[C@@H](CO)C(=O)N[C@@H](C)C(N)=O)N1)C(=O)N[C@@H](Cc1c[nH]c2ccccc12)C(=O)N[C@@H](CC(N)=O)C(=O)N[C@@H](Cc1c[nH]c2ccccc12)C(=O)N[C@@H](Cc1ccccc1)C(=O)O` (stereo partly drawn) [Compound 3α-C13], for which the IC50 with T-tropic (R8) HIV-1 is 430 nM; in assay [1], 260 nM; with M-tropic (BAL) HIV-1, 430 nM.
`CC[C@H](C)[C@H](NC(=O)[C@@H]1CSC(C(=O)NCCCC[C@H](NC(=O)CCNC(=O)C2N[C@H](C(=O)N[C@H](C(=O)N[C@@H](CCC(=O)O)C(=O)N[C@@H](CCC(=O)O)C(=O)N[C@@H](CO)C(=O)N[C@@H](CCC(N)=O)C(=O)N[C@@H](CC(N)=O)C(=O)N[C@@H](CCC(N)=O)C(=O)N[C@@H](CCC(N)=O)C(=O)N[C@@H](CCC(=O)O)C(=O)N[C@@H](CCCCN)C(=O)N[C@@H](CC(N)=O)C(=O)N[C@@H](CCC(=O)O)C(=O)N[C@@H](CCC(N)=O)C(=O)N[C@@H](CCC(=O)O)C(=O)N[C@@H](CC(C)C)C(=O)N[C@@H](CC(C)C)C(=O)O)[C@@H](C)CC)CS2)C(=O)N[C@@H](CCCCNC(=O)CNC(=O)C2N[C@H](C(=O)N[C@H](C(=O)N[C@@H](CCC(=O)O)C(=O)N[C@@H](CCC(=O)O)C(=O)N[C@@H](CO)C(=O)N[C@@H](CCC(N)=O)C(=O)N[C@@H](CC(N)=O)C(=O)N[C@@H](CCC(N)=O)C(=O)N[C@@H](CCC(N)=O)C(=O)N[C@@H](CCC(=O)O)C(=O)N[C@@H](CCCCN)C(=O)N[C@@H](CC(N)=O)C(=O)N[C@@H](CCC(=O)O)C(=O)N[C@@H](CCC(N)=O)C(=O)N[C@@H](CCC(=O)O)C(=O)N[C@@H](CC(C)C)C(=O)N[C@@H](CC(C)C)C(=O)O)[C@@H](C)CC)CS2)C(=O)N[C@@H](CO)C(=O)N[C@@H](CO)C(=O)N[C@@H](C)C(N)=O)N1)C(=O)N[C@@H](CCC(=O)O)C(=O)N[C@@H](CCC(=O)O)C(=O)N[C@@H](CO)C(=O)N[C@@H](CCC(N)=O)C(=O)N[C@@H](CC(N)=O)C(=O)N[C@@H](CCC(N)=O)C(=O)N[C@@H](CCC(N)=O)C(=O)N[C@@H](CCC(=O)O)C(=O)N[C@@H](CCCCN)C(=O)N[C@@H](CC(N)=O)C(=O)N[C@@H](CCC(=O)O)C(=O)N[C@@H](CCC(N)=O)C(=O)N[C@@H](CCC(=O)O)C(=O)N[C@@H](CC(C)C)C(=O)N[C@@H](CC(C)C)C(=O)O` (stereo partly drawn) [Compound 3α-C16]: the IC50 with T-tropic (R8) HIV-1 is above 1000 nM; in assay [1] it was above 1000 nM; in the assay on M-tropic (BAL) HIV-1 it was 124 nM.
